Source: US7582638B2, “Pyrazole-isoquinoline urea derivatives as p38 kinase inhibitors” (Eli Lilly and Company, priority 2005, dated 2009)

Experiments:
TNFα [1] = experiment: Effect on intra-articular LPS induced TNFα (synovial lavage fluid); type: in vivo; details: female Lewis rats, oral, intra-articular LPS 10 μg one hour later, lavage after two hours
Protocol: Intra-articular injection of LPS into rat ankles induces the synthesis of TNFα, which can be measured in synovial lavage fluid. High levels of TNFα are detectable within 2 hours. Since the joint is the site where arthritis develops, this model can rapidly determine whether an orally administered compound has an effect on an inflammatory response in the synovium.
Six female Lewis rats (150-200 g) are place in each treatment group. The animals are given vehicle (1% NaCarboxylnethylcellulose-0.25% Tween 80) or test compound (1 mg/kg, 3 mg/kg, 10 mg/kg, and 30 mg/kg) orally. One hour later, 10 μl LPS (10 μg) is administered intra-articularly into the right ankle of each rat, while the left ankle receives 10 μL of saline. After two hours, each ankle is lavaged with 100 μL of saline. The lavage is collected and stored at −80° C. • Group#1: Vehicle (1%/NaCMC-0.25% Tween 80, 1 mL, PO) • Group#2: Test compound (1 mg/kg, 1 mL, PO) • Group#3: Test compound (3 mg/kg, 1 mL, PO) • Group#4: Test compound (10 mg/kg, 1 mL, PO) • Group#5: Test compound (30 mg/kg, 1 mL, PO)
TNFα is measured with a commercially available ELISA kit (R&D, RTA00).

TNFα [2] = experiment: Inhibition of TNFα in vitro (LPS/interferon-γ treated mouse peritoneal macrophages, Luminex); type: cell-based; details: Peritoneal macrophage, LPS 50 ng/mL and interferon-γ 10 U/mL, 18 hours, read-out: IC50, suppression of TNFα in vitro
Protocol: 1 mL thioglycolate broth (5.0 g yeast extract, 15.0 g casitone or trypticase, 5.0 g dextrose, 2.5 g sodium chloride, 0.75 g L-cystine, 0.5 g sodium thioglycolate, 1.0 mg resazurin, and 0.75 g agar in 1.0 L distilled water) are injected into the peritoneal cavity of Balb/C female mice. At day 4 or 5 post-injection the mice are sacrificed and then injected i.p. with 4 mL RPMI-1640 medium (BioWhittaker) and the peritoneal macrophages are withdrawn by syringe.
Mouse peritoneal macrophages are counted with a hemocytometer and adjusted to 5×10^5 cells/well in 96-well plates in RPMI-1640 medium with 10% fetal bovine serum. 200 μL/well is plated in 96-well plates and the cells allowed to settle and adhere to the bottom of the well for at least 3 hours. The test compound or standard p38 kinase inhibitor is pre-treated using a series of 8 concentrations for 1 hour at 37° C. […]
50 μL of cytokine detection antibody is added and incubated for 60 seconds at room temperature on a shaker protected from light at setting 6 and then for 30 minutes at setting 3.3 washes are performed with the Bio-Plex Wash Buffer. […] Standards and samples are read on a Luminex machine. These intensity readings are then converted to picogram/milliliter units based on a 12-point standard curve created in duplicate using a four-parameter logistic regression method (Bio-Plex Manager 2.0, Bio-Rad), and the IC50 calculated. […]

## CS(=O)(=O)O.Cc1ccc(-n2nc(C3(C)CC3)cc2NC(=O)Nc2cnc(OC3CCN(C(=O)C4(C)CC4)CC3)c3ccccc23)cc1 [Example 12, 1-{1-[1-(1-Methyl-cyclopropanecarbonyl)-piperidin-4-yloxy]-isoquinolin-4-yl}-3-[5-(1-methyl-cyclopropyl)-2-p-tolyl-2H-pyrazol-3-yl]-urea mesylate]
TNFα [1]
  TMED50, inhibition of TNFα synthesis in the synovial lavage fluid: 2.54 mg/kg
TNFα [2]
  IC50: < 9 nM
